Data set [1] can be described thus: Determination of partition coefficients (n-octanol/water, radiotracer method). It is filed as physicochemical. The text has this: Chemical compounds that cross the blood brain barrier (BBB) should be neutral and lipophilic and also, have a low molecular weight. The partition coefficient (P) provides a measure of the compound lipophilicity and is closely related to drug distribution in the body, its absorption in tissues and its route of excretion (Meade et al. in Curr. Opin. Neurobiol., 2003, 13, 5, 597-602). One method used to determine this parameter is that of radiotracers which relates the radiotracers activity or number of counts in the octanol organic phase with that of the aqueous phase. In this invention the compounds labeling is carried out using the Iodogeno method (^131I).
Determination of Partition Coefficients: A solution of 9 (20 μL), prepared as described in example 10, was added to a mixture of 3 ml of n-octanol and 3 ml of distilled water. After stirring and leaving to stand the mixture, aliquots of 20 μL from each phase were taken to determine the radiometric distribution ratio by an activity meter (CRC 35R, Capintec Inc.). This procedure was repeated to the radiopharmaceutical of ^99mTc-ECD as reference, which is used for cerebral perfusion studies.

Data set [2] can be described thus: Biodistribution in rats after intravenous injection (gamma camera imaging). Format: in vivo, male Wistar rats. As for the experimental part: The arrow indicates the detection of the compound in the region of interest (maximum uptake at about 3 min.).
Animal Studies: A solution of 9 15 MBq ([…]), prepared as described above, was administered to male Wistar rats (160 g, n=3) through the lateral tail vein. Then, images were taken every 15 seconds, for 30 min. (120 images) with a gamma camera (Medis Nucline TH22, Hungary), with a peak centered at 360 keV and a window of ±25%. The image processing was performed on a processing station Segami (USA).

The text below walks through data of patent publication US9764047B2, “Method for obtaining novel derivatives of naphthalene for the in vivo diagnosis of alzheimer's disease” (CENTRO DE NEUROCIENCIAS DE CUBA, priority 2009, dated 2017).

Like-named read-outs stand apart in the source and are kept apart here.

The term melting point denotes the temperature of the solid-liquid transition. The molecule `O=C(O)CCNC(=O)CCC(=O)Nc1cccc2ccccc12` showed a melting point of 180.5 to 181.8 °C.
The same measure, in the same setting: for `O=C(O)CCC(=O)Nc1cccc2ccccc12` [Compound 2, 4-(1-naphthylamino)-4-oxobutanoic acid] the value was 167 to 169 °C.
A word on the logP: it is the decadic logarithm of the partition coefficient of the neutral form, usually between octanol and water. With `CCOC(=O)[C@H](C[S-])[N-]CCN[C@@H](C[S-])C(=O)OCC.[O-2].[Tc]` [^99mTc-ECD, ^99mTc-ethylcysteinate diethyl ester, reference compound], in data set [1], the Partition coefficient is listed as 40.6 and the logP was found to be 1.6.
On to “N1-(2-aminoethyl)-N4-(1-naphthyl) succinimide-^131I [Compound 9]”, for which the “time of maximum uptake in the region of interest” value in data set [2] (131I-labeled compound) is “about 3 min”. Also, the “excretion of the radioiodinated compound” value in data set [2] (after maximum uptake) is on record as “slow excretion”. For the same molecule, in data set [1] (n-octanol/distilled water, radiometric distribution ratio), the Partition coefficient was 0.54. The logP in data set [1] (octanol/water) was −0.27.
